According to US20160264593A1 (priority 2013, published 2016):
“And” between values parts separate entries of the source, which are not always exact repeats. Equal entries are not always repeated. Where two headings read alike, the source gives them in different places.

What was measured:
[1] = tested on: breast cancer (2LMP) cells; experiment: WST cell viability assay, 2LMP
Source text: IC50 values were obtained for cytotoxicity against breast cancer (2LMP), glioblastoma (U-87) and lung cancer (A549) cells (See Table 5 and FIGS. 3-5).

[2] = tested on: lung cancer (A549) cells; experiment: WST cell viability assay, A549; assay type: cell-based; settings: Homo sapiens, A549, read-out: IC50 A549
[3] = tested on: glioblastoma (U-87) cells; experiment: WST cell viability assay, U-87 MG; assay type: cell-based; settings: Homo sapiens, U-87 MG
[4] = tested on: PP2A; experiment: PP2A activity in mouse brains after IP dosing (PP2A immunoprecipitation phosphatase assay, malachite green); assay type: in vivo, Balb/c mice; settings: brain
Summary of the method: (§1)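 Female Balb/c mice (6-8 weeks) were dosed IP with compound in 4% sodium bicarbonate; brain and liver were harvested 3 h and 6 h post-dose. PP2A was immunoprecipitated from 240 μg lysate with anti-PP2A, using normal IgG as control. Phosphatase activity on a threonine phosphopeptide was read by malachite green absorbance against a phosphate standard curve.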

[5] = tested on: PP2A; experiment: PP2A activity in mouse livers after IP dosing (PP2A immunoprecipitation phosphatase assay, malachite green); assay type: in vivo, Balb/c mice; settings: liver
Summary of the method: as §1

[6] = high dose IP (mpk: 100 1.5, 113 2.2, 151 1.6, 153 1.7, 157 2.0), 3 h
[7] = high dose IP (mpk: 100 1.5, 113 2.2, 151 1.6, 153 1.7, 157 2.0), 6 h
[8] = low dose IP (mpk: 100 0.75, 113 1.1, 151 0.8, 153 0.85, 157 1.0), 3 h
[9] = low dose IP (mpk: 100 0.75, 113 1.1, 151 0.8, 153 0.85, 157 1.0), 6 h
[10] = high dose IP (mpk: 100 1.5, 113 2.2, 151 1.6, 157 2.0), 3 h
[11] = high dose IP (mpk: 100 1.5, 113 2.2, 151 1.6, 157 2.0), 6 h

CN1CCN(C(=O)C2C3CCC(O3)C2C(=O)O)CC1 (stereo not shown) [Compound 100, 3-(4-methylpiperazine-1-carbonyl)-7-oxa-bicyclo[2,2,1]-heptane-2-carboxylic acid]
IC50 ([1]; read-out: IC50 2LMP, WST-20131015 (first value of the cell)): 3.41 µM
IC50 ([1]; read-out: IC50 2LMP, WST-20131025 (second value of the cell)): 6.98 µM
IC50 [2]: 10.3 µM
IC50 ([3]; read-out: IC50 U-87 MG, WST-20131017 (first value of the cell)): 19.9 µM
IC50 ([3]; read-out: IC50 U-87 MG, WST-20131024 (second value of the cell)): 25.2 µM
Average Conc. (group of 3 mice) [4, 6]: 1176.58
Average Relative Activity (group, vehicle = 100) [4, 6]: 80.09
Conc. (phosphate, single reading, per mouse) [4, 6]: 1090.16 and 1146.07 and 1273.56 and 1349.24 and 1116.43 and 1122.21
Mean Conc. (per mouse) [4, 6]: 1118.11 and 1311.40 and 1119.32
Mean Conc. less IgG blank (per mouse) [4, 6]: 1111.75 and 1305.03 and 1112.95
Relative Conc. (per mouse, to vehicle) [4, 6]: 0.77 (2×) and 0.90
Relative PP2A Activity (per mouse, vehicle = 100) [4, 6]: 75.68 and 88.84 and 75.76
Average Conc. (group of 3 mice) [4, 7]: 1430.23
Average Relative Activity (group, vehicle = 100) [4, 7]: 102.54
Conc. (phosphate, single reading, per mouse) [4, 7]: 1524.93 and 1576.74 and 1180.05 and 1223.91 and 1496.73 and 1617.23
Mean Conc. (per mouse) [4, 7]: 1550.84 and 1201.98 and 1556.98
Mean Conc. less IgG blank (per mouse) [4, 7]: 1544.47 and 1195.62 and 1550.62
Relative Conc. (per mouse, to vehicle) [4, 7]: 1.12 (2×) and 0.87
Relative PP2A Activity (per mouse, vehicle = 100) [4, 7]: 110.73 and 85.72 and 111.17
Average Conc. (group of 3 mice) [4, 8]: 1143.44
Average Relative Activity (group, vehicle = 100) [4, 8]: 77.84
Conc. (phosphate, single reading, per mouse) [4, 8]: 1131.61 and 1148.72 and 982.91 and 1046.54 and 1270.67 and 1318.39
Mean Conc. (per mouse) [4, 8]: 1140.17 and 1014.72 and 1294.53
Mean Conc. less IgG blank (per mouse) [4, 8]: 1133.80 and 1008.36 and 1288.16
Relative Conc. (per mouse, to vehicle) [4, 8]: 0.78 and 0.69 and 0.89
Relative PP2A Activity (per mouse, vehicle = 100) [4, 8]: 77.18 and 68.64 and 87.69
Average Conc. (group of 3 mice) [4, 9]: 1009.84
Average Relative Activity (group, vehicle = 100) [4, 9]: 72.40
Conc. (phosphate, single reading, per mouse) [4, 9]: 996.89 and 1024.12 and 978.81 and 1073.53 and 990.38 and 1033.52
Mean Conc. (per mouse) [4, 9]: 1010.51 and 1026.17 and 1011.95
Mean Conc. less IgG blank (per mouse) [4, 9]: 1004.14 and 1019.81 and 1005.59
Relative Conc. (per mouse, to vehicle) [4, 9]: 0.73 (2×) and 0.74
Relative PP2A Activity (per mouse, vehicle = 100) [4, 9]: 71.99 and 73.11 and 72.09
Average Conc. (group of 3 mice) [5, 10]: 290.15
Average Relative Activity (group, vehicle = 100) [5, 10]: 73.9
Conc. (phosphate, single reading, per mouse) [5, 10]: 340.38 and 353.99 and 282.08 and 493.05 and 279.92 and 293.74
Mean Conc. (per mouse) [5, 10]: 347.18 and 387.56 and 286.83
Mean Conc. less IgG blank (per mouse) [5, 10]: 296.81 and 337.19 and 236.46
Relative Conc. (per mouse, to vehicle) [5, 10]: 0.76 and 0.86 and 0.6
Relative PP2A Activity (per mouse, vehicle = 100) [5, 10]: 75.64 and 85.93 and 60.26
Average Conc. (group of 3 mice) [5, 11]: 197.91
Average Relative Activity (group, vehicle = 100) [5, 11]: 50.5
Conc. (phosphate, single reading, per mouse) [5, 11]: 154.46 and 167.2 and 290.5 and 323.97 and 262.21 and 291.36
Mean Conc. (per mouse) [5, 11]: 160.83 and 307.23 and 276.79
Mean Conc. less IgG blank (per mouse) [5, 11]: 110.45 and 256.86 and 226.41
Relative Conc. (per mouse, to vehicle) [5, 11]: 0.28 and 0.66 and 0.58
Relative PP2A Activity (per mouse, vehicle = 100) [5, 11]: 28.21 and 65.59 and 57.82
Average Conc. (group of 3 mice) [5, 8]: 289.29
Average Relative Activity (group, vehicle = 100) [5, 8]: 73.7
Conc. (phosphate, single reading, per mouse) [5, 8]: 292.01 and 308.85 and 318.57 and 329.58 and 359.6 and 429.35
Mean Conc. (per mouse) [5, 8]: 300.43 and 324.08 and 394.47
Mean Conc. less IgG blank (per mouse) [5, 8]: 250.06 and 273.7 and 344.1
Relative Conc. (per mouse, to vehicle) [5, 8]: 0.64 and 0.7 and 0.88
Relative PP2A Activity (per mouse, vehicle = 100) [5, 8]: 63.73 and 69.75 and 87.69
Average Conc. (group of 3 mice) [5, 9]: 316.5
Average Relative Activity (group, vehicle = 100) [5, 9]: 80.8
Conc. (phosphate, single reading, per mouse) [5, 9]: 391.13 and 414.88 and 358.3 and 359.17 and 328.94 and 348.8
Mean Conc. (per mouse) [5, 9]: 403 and 358.74 and 338.87
Mean Conc. less IgG blank (per mouse) [5, 9]: 352.63 and 308.36 and 288.5
Relative Conc. (per mouse, to vehicle) [5, 9]: 0.9 and 0.79 and 0.74
Relative PP2A Activity (per mouse, vehicle = 100) [5, 9]: 90.05 and 78.74 and 73.67
